Patent US20040044304A1, “Local drug delivery using photosensitizer-mediated and electromagnetic radiation enhanced vascular permeability” (priority 2002, published 2004)
Read-outs that look alike come from different tables or passages of the source.

Tested on: blood vessels within the dorsal window chamber
Assay type: in vivo, Syrian golden hamsters
Details: for Observations 24 hr post FITC-Dextran administration / Observations immediately post FITC-Dextran administration (extravasation): blue 425 nm; for Leakage of FITC-Dextran, dependence on presence of photosensitizer: light doses used in the evaluable animals of Tables 1-4
From the text: Syrian golden hamsters (Charles River Laboratories, Kingston, N.Y.) weighing between 60-70 gram were surgically implanted with titanium back-pack window chambers as described ([…] et al., 1980; Colantuoni et al., 1984; […] et al., 1994). Prior to the surgical procedure, the dorsal surface of the mouse was shaved with electric clippers (Sunbeam Oster 2-Speed, 150 Cadillac Lane, McMinnville, Tenn., 37110) and then the shaved skin covered in a depilatory cream (Nair, Carter Products, New York, N.Y., 10105) for 10 minutes to remove the remaining hair. A dorsal skin fold consisting of two layers of skin and muscle tissue was then sandwiched between two opposing titanium frames (Campus Research Machine Shop, University of California, San Diego 9500 Gilman Drive, La Jolla, Calif.) with a 15 mm circular opening in each. Layers of skin and muscle fascia were separated from the sub-cutaneous tissue, and removed until a thin monolayer of muscle and one layer of intact skin remained. A coverglass (Type Circle 1, Part #12-545-80 sourced from Fisher Scientific, 2761 Walnut Avenue, Tustin, Calif., 92780) held by an expansion ring in the circular window of one titanium frame was then placed on the exposed tissue to allow direct microscopic visualization of the vasculature. The window in the second opposing titanium frame was left open exposing the intact skin. Two days following the implantation of the titanium chamber, an in-dwelling PE10 catheter (VVR Scientific, Westchester, Pa.) was implanted in the carotid artery. The catheter tubing was passed sub-cutaneously from the ventral to the dorsal side of the neck, and exteriorized through the skin at the base of the chamber. The patency of the catheter was ensured by daily flushing of the in-dwelling implanted tip with 0.005-0.01 ml of heparinized saline (40 IU/ml). The heparin was sourced from Upjohn Co., 100 Route […], Prepack, N.J., 07977, and the saline from Abbott Laboratories, North Chicago, Ill., 60064. Microvascular observations using an intra-vital microscope were not undertaken until at least 4 days post-chamber implantation to mitigate against post-surgical trauma, and to confirm that blood vessels within the chamber were functioning and intact and patent. A chamber was considered suitable for subsequent studies if microscopic examination of the preparation met the following criteria (as applied in […] et al., 1994): The intra-vital microscopic studies were undertaken on un-sedated animals held in a Plexiglass tube (Campus Research Machine Shop, University of California, San Diego 9500 Gilman Drive, La Jolla, Calif.) from which the window chamber sandwich protruded horizontally, allowing visualization of the chamber on the microscope stage. The Plexiglass tube acted to restrain the animals without impeding respiration. The intra-vital microscopy was performed using a Leitz Ortholux II (McBain Instruments, Inc., 9601 […] Avenue, Chatsworth, Calif., 91311) fitted with a Leitz Wetzlar 25× saline immersion objective lens, 0.6 numerical aperture (McBain Instruments, Inc., 9601 […] Avenue, Chatsworth, Calif., 91311), a Leitz Wetzlar 10× dry Planfluotar lens, 0.3 numerical aperture (McBain Instruments, Inc., 9601 […] Avenue, Chatsworth, Calif., 91311) and a Leitz Wetzlar 4× EF dry lens, 0.12 numerical aperture (McBain Instruments, Inc., 9601 […] Avenue, Chatsworth, Calif., 91311). A 100 Watt Hg light source (Olympus Corporation, 2 Corporate Center Drive, Melville, N.Y., 11747-3157) was used for both trans- and epi-illumination. For the trans-illumination studies the light was filtered using a 420 nm blue filter which selectively passed light in the region of the maximum absorbance band of hemoglobin, causing the red blood cells to appear as dark objects against a gray background. In addition, a heat filter was placed in the light path prior to the condenser to prevent hyperthermic effects on the tissue being examined.

SMILES | Observations 24 hr post FITC-Dextran administration (hamster A69, SnET2 1.0 mg/kg i.c., 25 J/cm^2, 44 mW/cm^2) | Observations immediately post FITC-Dextran administration (extravasation) (hamster A69, SnET2 1.0 mg/kg i.c., 25 J/cm^2, 44 mW/cm^2, FITC-Dextran approx. 45 min post PhotoPoint therapy) | Observations 24 hr post FITC-Dextran administration (hamster A70, SnET2 1.0 mg/kg i.c., 50 J/cm^2, 44 mW/cm^2) | Observations immediately post FITC-Dextran administration (extravasation) (hamster A70, SnET2 1.0 mg/kg i.c., 50 J/cm^2, 44 mW/cm^2, FITC-Dextran approx. 60 min post PhotoPoint therapy) | Effect on venules and veins during PhotoPoint therapy (hamster, in vivo) | Focal constrictions apparent in arterioles and arteries, time following the commencement of PhotoPoint therapy (hamster, in vivo) [s] | Leakage of FITC-Dextran, dependence on presence of photosensitizer | Observations immediately post FITC-Dextran administration (extravasation) (hamster A41, MV6401 0.05 mg/kg i.c., 50 J/cm^2, 80 mW/cm^2, FITC-Dextran approx. 30 min post PhotoPoint therapy) | Observations 24 hr post FITC-Dextran administration (hamster A46, MV6401 0.15 mg/kg i.c., 50 J/cm^2, 56.6 mW/cm^2) | Observations immediately post FITC-Dextran administration (extravasation) (hamster A46, MV6401 0.15 mg/kg i.c., 50 J/cm^2, 56.6 mW/cm^2, FITC-Dextran approx. 50 min post PhotoPoint therapy) | Dilation apparent in venules and veins, time following the commencement of PhotoPoint therapy (hamster, in vivo) [s] | Edema apparent in tissue in chamber, 24 hr post FITC-Dextran administration (hamster, in vivo, 0.05 mg/kg) | Vascular damage, 24 hr post FITC-Dextran administration (hamster, in vivo, 0.05 mg/kg)
CCOC(=O)C1=Cc2c3nc(cc4nc(cc5[n-]c(cc6[n-]c2c(C)c6CC)c(C)c5CC)C(C)=C4CC)[C@@H](C)[C@]13CC.[Cl-].[Cl-].[Sn] (racemic) [SnET2, tin ethyl etiopurpurin] | Results as for Animal A35. | Results as for Animal A35. | Results as for Animal A35. | Results as for Animal A35. | some minor constriction | ≤ 30 | only occurred when the photosensitizer (either MV6401 or SnET2) was present | – | – | – | – | – | –
C=Cc1c(C)c2[n]3c1=CC1=NC(=Cc4c(C)c5c([n]4[In]3[Cl])C(=C3N=C(C=2)[C@@H](C)[C@@H]3CCC(=O)OC)CC5=O)C(CC)=C1C [MV6401, indium methyl pyropheophorbide] | – | – | – | – | – | ≤ 30 | only occurred when the photosensitizer (either MV6401 or SnET2) was present | Results as for Animal A35 | Results as for Animal A35. | Results as for Animal A35. | ≤ 30 | vascular damage. Severe | Gross and microscopic
